Results taken from patent publication US9573907B2, “2, 4-pyrimidine derivatives and use thereof” (SNU R&DB FOUNDATION, priority 2009, dated 2017).

How the values were obtained:
[1] = molecular target: T1, gp96 Y731F (Homo sapiens, UniProt P14625, Y735F); assay: Surface plasmon resonance, GPM1 binding to gp96 mutant Y731F
T1 construct: made in house; host or cells: Escherichia coli BL21 (DE3)
Procedure: (§1) Human gp96 was expressed as His tag fusion protein in Escherichia coli BL21 (DE3) and purified by nickel affinity chromatography. His-tagged human gp96 was immobilized onto CM5 sensor chips using standard amine coupling2. PBS was used as a running buffer. The carboxymethyl dextran surface within one side of the flow cell was activated with a 7-min injection of a 1:1 ratio of 0.4M EDC and 0.1M NHS. The protein was coupled to the surface with a 7-min injection of gp96 diluted in 10 mM sodium acetate, pH 3.7. Remaining activated groups were blocked with a 7-min injection of 1.0M ethanolamine, pH 8.5. GPM1 compound was dissolved directly in the PBS running buffer containing 1% DMSO and injected at a flow rate of 20 μl/min at 25° C. and the binding was determined by the change in resonance units (RU). The compound concentration varied from 10 nM to 25 μM and each concentration was tested at least three times. All of the bound complexes dissociated back to baseline within a reasonable time frame. Therefore, no regeneration was required. Sensorgram was processed by subtracting the binding response recorded from the control surface, followed by subtracting an average of the buffer blank injections from the reaction spot. To determine kinetic rate constants, all data sets were fit to a simple 1:1 binding with drifting baseline model using BIAevaluation program.
(§2) The present inventors compared the dose-dependent effect of GPM1 and NC1 on the interaction of gp96 and AIMP1 using ELISA. […] The present inventors monitored the binding kinetics of GPM1 to gp96 or AIMP1 by surface plasmon resonance (SPR) using BIAcore 3000. […] To further define the GPM1 binding region of gp96 (Han, J. M., Park, S. G., Liu, B., Park, B. J., Kim, J. Y., Jin, C. H., Song, Y. W., Li, Z. & Kim, S. Am. J. Pathol. 170, 2042-2054 (2007)), the present inventors introduced point mutations at L707, V706, V712, L713, F714, Y731 and M738 that are located within AIMP1 binding region of gp96 and monitored how the mutations at these sites would affect the binding of GPM1 to gp96 using SPR method.

[2] = molecular target: T2, interaction of gp96 with AIMP1 (Mus musculus, UniProt P08113); assay: Co-immunoprecipitation of gp96 with AIMP1 in RAW24.7 cells; format: cell-based; conditions: 10 μM, 24 h
T2 construct: endogenous in cells; host or cells: RAW24.7 (RAW264.7) cells
T2 sequence (P08113 22-802): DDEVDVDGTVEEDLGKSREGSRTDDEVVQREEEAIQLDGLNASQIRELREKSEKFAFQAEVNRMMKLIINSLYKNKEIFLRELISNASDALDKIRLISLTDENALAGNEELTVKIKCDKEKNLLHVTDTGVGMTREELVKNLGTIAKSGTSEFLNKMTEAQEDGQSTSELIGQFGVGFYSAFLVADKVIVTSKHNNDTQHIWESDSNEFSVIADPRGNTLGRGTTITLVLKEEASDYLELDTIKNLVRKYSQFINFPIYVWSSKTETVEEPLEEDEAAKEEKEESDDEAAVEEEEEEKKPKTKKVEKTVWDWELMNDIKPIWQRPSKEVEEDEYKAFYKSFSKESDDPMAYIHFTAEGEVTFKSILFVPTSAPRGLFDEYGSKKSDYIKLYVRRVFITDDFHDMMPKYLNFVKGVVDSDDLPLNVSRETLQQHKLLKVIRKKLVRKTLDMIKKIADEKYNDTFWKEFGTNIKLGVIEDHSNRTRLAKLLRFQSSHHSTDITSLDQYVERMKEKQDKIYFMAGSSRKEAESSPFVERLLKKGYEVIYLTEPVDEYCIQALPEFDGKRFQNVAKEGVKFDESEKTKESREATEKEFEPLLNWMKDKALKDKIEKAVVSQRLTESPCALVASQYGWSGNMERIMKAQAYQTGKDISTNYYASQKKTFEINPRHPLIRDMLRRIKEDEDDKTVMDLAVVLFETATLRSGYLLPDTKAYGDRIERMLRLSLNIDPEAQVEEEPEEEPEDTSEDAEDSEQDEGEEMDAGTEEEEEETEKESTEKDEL
Procedure: FIGS. 1 to 9 represent suppression of cell surface gp96 by GPM1 reduces DC maturation and B220^+ population in gp96tm transgenic mice. (FIG. 1) Chemical structure of GPM1 (Formula 2) and negative control (NC1, Formula 16) used in this study. (FIG. 2) The dose-dependent effect of GPM1 or NC1 on the AIMP1-gp96 interaction using ELISA method as described. The indicated concentrations of the two compounds and biotin-conjugated murine gp96 were added to AIMP1 coated on the surface of microtiter wells, and gp96 bound to AIMP1 was detected with strepavidin-conjugated peroxidase. (FIG. 3) The binding of GPM1 to gp96 was examined by surface plasmon resonance (SPR). GPM1 at the indicated concentrations was injected to immobilized gp96 and the binding was measured using Biacore 3000. The response data were processed using data from a reference surface and buffer injections. Each concentration was tested in triplicate. (FIG. 4) RAW24.7 cells were treated with 10 μM GPM1 for 24 h. Cell lysates were immunoprecipitated with control IgG or anti-gp96 antibody and the immunoprecipitated proteins were immunoblotted with anti-KDELR1, antiAIMP1 and gp96 antibodies. WCL means whole cell lysate. […] TNFα secreted from BMDCs was quantified by ELISA. […]

[3] = molecular target: T3, gp96 V712A/L713A/F714Y (Homo sapiens, UniProt P14625, F718Y/L717A/V716A); assay: Surface plasmon resonance, GPM1 binding to gp96 mutant V712A/L713A/F714Y
T3 construct: made in house; host or cells: Escherichia coli BL21 (DE3)
T3 sequence (P14625 22-803 V716A/L717A/F718Y): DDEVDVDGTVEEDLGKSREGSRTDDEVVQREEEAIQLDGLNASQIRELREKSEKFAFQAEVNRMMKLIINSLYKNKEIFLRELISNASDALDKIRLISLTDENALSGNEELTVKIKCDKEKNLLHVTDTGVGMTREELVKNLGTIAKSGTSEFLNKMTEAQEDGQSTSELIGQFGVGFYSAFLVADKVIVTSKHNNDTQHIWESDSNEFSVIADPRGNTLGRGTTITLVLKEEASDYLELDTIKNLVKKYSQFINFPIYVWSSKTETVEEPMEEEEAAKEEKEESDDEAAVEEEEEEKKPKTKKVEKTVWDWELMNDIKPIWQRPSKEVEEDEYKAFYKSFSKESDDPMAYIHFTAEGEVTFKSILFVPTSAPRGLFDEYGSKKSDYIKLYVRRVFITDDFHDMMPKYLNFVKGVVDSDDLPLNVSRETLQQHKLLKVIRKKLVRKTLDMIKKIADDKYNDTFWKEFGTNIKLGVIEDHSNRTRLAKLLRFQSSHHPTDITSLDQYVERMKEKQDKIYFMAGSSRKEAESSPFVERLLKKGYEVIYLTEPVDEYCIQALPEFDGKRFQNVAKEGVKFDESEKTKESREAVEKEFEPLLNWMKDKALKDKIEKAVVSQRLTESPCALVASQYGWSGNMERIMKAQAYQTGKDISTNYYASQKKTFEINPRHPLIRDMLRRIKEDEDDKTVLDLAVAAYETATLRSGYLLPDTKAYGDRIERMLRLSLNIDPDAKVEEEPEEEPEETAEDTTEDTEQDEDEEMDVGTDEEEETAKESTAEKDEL
Procedure: as §1, §2

T1 sequence (P14625 22-803 Y735F): as the sequence (P14625 22-803 V716A/L717A/F718Y) above, with A695V, A696L, Y697F, Y714F counted along it

SMILES: COC(=O)[C@@H](Oc1nc(OC)cc(OC)n1)C(C)C [GPM1, (S)-methyl 2-(4,6-dimethoxypyrimidin-2-yloxy)-3-methylbutanoate]
- Kd [1]: 0.73 µM
- koff (dissociation rate constant) [1]: 0.0149 s⁻¹
- kon ([1]; read-out: Ka): 20400 M⁻¹ s⁻¹
- interaction of gp96 with AIMP1 [2]: decreased
- Kd [3]: 21.9 µM
- koff (dissociation rate constant) [3]: 0.0142 s⁻¹
- kon ([3]; read-out: Ka): 650 M⁻¹ s⁻¹
